The values below come from patent US20150313225A1.

Like-named read-outs stand apart in the source and are kept apart here.

What all share (type): cell-based
Assay [1] deals with Pyricularia oryzae. Put plainly: microbe, parasite or virus in culture. The note with it: for Observed efficacy: solo product.
Assay [2] has as its system Botrytis cinerea. Kind of assay: Microtiterplate test against the grey mold Botrytis cinerea (Botrci). The note with it: solo product.
The subject of assay [3] is Septoria tritici. Put plainly: Microtest against leaf blotch on wheat caused by Septoria tritici (Septtr). The following applies: solo product.
The subject of assay [4] is Alternaria solani. Put plainly: Microtest against early blight caused by Alternaria solani (Alteso). The note with it: solo product; for inhibition of growth at […]: 0.063 ppm.
Assay [5] concerns Phytophthora infestans. Kind of assay: microbe, parasite or virus in culture. The following applies: for Observed efficacy: solo product.
The test system of assay [6] is Leptosphaeria nodorum. Put plainly: Microtest against wheat leaf spots caused by Leptosphaeria nodorum (Leptno). The following applies: solo product.
Setting [7] is: Pyricularia oryzae, 168 h, read-out: Observed efficacy.
The mark [8] stands for this setting: Botrytis cinerea, 168 h, 4 ppm, read-out: Observed efficacy.
Where [9] appears, read: Botrytis cinerea, 168 h, 16 ppm, read-out: Observed efficacy.
The mark [10] stands for this setting: Alternaria solani, 168 h, 4 ppm, read-out: Observed efficacy.
The mark [11] stands for this setting: Alternaria solani, 168 h, 16 ppm, read-out: Observed efficacy.
[12] abbreviates: Botrytis cinerea, 168 h, 0.063 ppm, read-out: Observed efficacy.
Where [13] appears, read: Zymoseptoria tritici, 168 h, read-out: Observed efficacy.
The mark [14] stands for this setting: Parastagonospora nodorum, 168 h, read-out: Observed efficacy.
Where [15] appears, read: Parastagonospora nodorum, 168 h, 0.016 ppm, read-out: Observed efficacy.
Where [16] appears, read: Alternaria solani, 168 h, 0.001 ppm, read-out: Observed efficacy.
[17] abbreviates: Alternaria solani, 168 h, 0.016 ppm, read-out: Observed efficacy.
[18] abbreviates: Botrytis cinerea, 168 h, 0.25 ppm, read-out: Observed efficacy.
Where [19] appears, read: Alternaria solani, 168 h, 0.004 ppm, read-out: Observed efficacy.
The mark [20] stands for this setting: Botrytis cinerea, 168 h, read-out: Observed efficacy.
The mark [21] stands for this setting: Phytophthora infestans, 168 h, read-out: Observed efficacy.
The mark [22] stands for this setting: Alternaria solani, 168 h, read-out: Observed efficacy.
Where [23] appears, read: Alternaria solani, 168 h, 63 ppm, read-out: Observed efficacy.
Setting [24] is: Botrytis cinerea, 168 h, 0.016 ppm, read-out: Observed efficacy.

Consider `CCOC(=O)C1CC(=O)C(=C(O)C2CC2)C(=O)C1` (centres unmarked) [II-3a, trinexapac-ethyl, reference compound], for which the inhibition of growth at 4 ppm in assay [1] (setting [7]) was 5%; in assay [2] (setting [8]), 7%; in assay [3] (Zymoseptoria tritici, 168 h, 4 ppm, read-out: Observed efficacy), 13%; in assay [4] (setting [10]), 12%. In addition, the results for the inhibition of growth at 16 ppm in assay [1] (setting [7]), in assay [2] (setting [9]) and in assay [4] (setting [11]) were 21%, 5% and 27%, respectively. In addition, the inhibition of growth at 63 ppm in assay [1] (setting [7]) stood at 81%; in assay [2] (Botrytis cinerea, 168 h, 63 ppm, read-out: Observed efficacy), 15%.

Turning to `CCCCCCCCc1c(CC)nc2ncnn2c1N` [II-1, ametoctradin, reference compound], the Observed efficacy in assay [2] (16 ppm) came to 3; in assay [2] (63 ppm), 4; in assay [5] (1 ppm), 75; in assay [4] (4 ppm) it was 5; in assay [4] (16 ppm), 2; in assay [4] (63 ppm), 6.

With `CCC(=O)C1=C([O-])CC(C(=O)[O-])CC1=O.[Ca+2]` (centres unmarked) [Prohexadion-ca], the Observed efficacy in assay [1] (4 ppm) is reported as 2; in assay [1] (16 ppm) it was 2; in assay [1] (63 ppm) it was 3; in assay [2] (4 ppm), 10; in assay [2] (16 ppm), 5; in assay [2] (63 ppm), 4. Further, the Observed efficacy in assay [3] (63 ppm) stood at 15; in assay [4] (4 ppm) it was 6; in assay [4] (16 ppm), 2.

With `COCC(O)(Cn1cncn1)c1ccc(Oc2ccc(Cl)cc2)cc1Cl` (centres unmarked) [I-26, 2-[2-chloro-4-(4-chlorophenoxy)phenyl]-1-methoxy-3-(1,2,4-triazol-1-yl)propan-2-ol], the inhibition of growth at 0.016 ppm in assay [1] (setting [7]) came to 0%; in assay [6] (setting [15]) it was 24%; in assay [4] (setting [17]) it was 4%. Moreover, the inhibition of growth at 1 ppm in assay [1] (setting [7]) was 55%. Moreover, the inhibition of growth at […] in assay [2] (setting [12]) worked out at 44%. Moreover, the inhibition of growth at 0.001 ppm in assay [3] (setting [13]) turned out to be 29%; in assay [6] (setting [14]) it was 9%; in assay [4] (setting [16]) it was 5%. Moreover, the inhibition of growth at 6.3e-05 ppm in assay [3] (setting [13]) was 19%. Further, the inhibition of growth at 0.004 ppm in assay [6] (setting [14]) came out at 15%.

Take `O=C(Nc1ccccc1-c1ccc(Cl)cc1)c1cccnc1Cl` [II-7, boscalid, reference compound]: the inhibition of growth at 16 ppm in assay [1] (setting [7]) worked out at 2%. Moreover, in assay [2] (setting [18]), the inhibition of growth at […] came to 38%. The inhibition of growth at 4 ppm in assay [6] (Parastagonospora nodorum, 168 h, 4 ppm, read-out: Observed efficacy) was 23%. In addition, the inhibition of growth at 0.001 ppm in assay [4] (setting [16]) is 5%. Besides, the inhibition of growth at 0.004 ppm in assay [4] (setting [19]) was 6%.

On to `CO/N=C(/C1=NOCCO1)c1ccccc1Oc1ncnc(Oc2ccccc2Cl)c1F` [II-37, fluoxastrobin, reference compound], for which the inhibition of growth at 0.004 ppm in assay [1] (setting [7]) came out at 3%. For the same compound, the inhibition of growth at 0.016 ppm in assay [1] (setting [7]) is 8%; in assay [5] (setting [21]), 4%; in assay [4] (setting [17]), 11%. The inhibition of growth at 1 ppm in assay [2] (setting [20]) amounted to 5%. The inhibition of growth at 4 ppm in assay [2] (setting [8]) was 10%. The inhibition of growth at 16 ppm in assay [2] (setting [9]) was found to be 23%. Also, the inhibition of growth at […] in assay [4] (setting [22]) came out at 27%.

For the compound `CCN(Cc1ccc(Cl)nc1)/C(=C/[N+](=O)[O-])NC` [Nitenpyram], the figures for the inhibition of growth at 4 ppm in assay [1] (setting [7]) and in assay [4] (setting [10]) were 1% and 2%, respectively. The inhibition of growth at 16 ppm in assay [1] (setting [7]) was determined as 0%; in assay [4] (setting [11]) it was 2%. Moreover, the inhibition of growth at 63 ppm amounted to 3% in assay [1] (setting [7]); 10% in assay [3] (Zymoseptoria tritici, 168 h, 63 ppm, read-out: Observed efficacy); 23% in assay [6] (Parastagonospora nodorum, 168 h, 63 ppm, read-out: Observed efficacy); 8% in assay [4] (setting [23]).

Regarding `Fc1ccc([C@]2(Cn3cncn3)O[C@H]2c2ccccc2Cl)cc1` [Epoxiconazol], the Observed efficacy in assay [2] (0.016 ppm) is given as 11; in assay [3] (0.016 ppm), 16; in assay [4] (0.004 ppm), 5; in assay [4] (0.016 ppm) it was 8.

As to `CON=C(C(=O)OC)c1ccccc1CON=C(C)c1cccc(C(F)(F)F)c1` [II-92, trifloxystrobin, reference compound], the inhibition of growth at 0.004 ppm in assay [1] (setting [7]) was found to be 11%; in assay [4] (setting [19]) it was 7%. For the same compound, the inhibition of growth at 0.016 ppm in assay [1] (setting [7]) was 26%; in assay [4] (setting [17]), 11%. In addition, the inhibition of growth at 4 ppm in assay [2] (setting [8]) worked out at 2%. Also, in assay [2] (setting [9]), the inhibition of growth at 16 ppm came to 6%. In addition, in assay [6] (Parastagonospora nodorum, 168 h, 0.063 ppm, read-out: Observed efficacy), the inhibition of growth at […] is 39%.

Regarding `Cc1ccc(C(C)NC(=O)[C@@H](NC(=O)OC(C)C)C(C)C)cc1` (some centres unmarked) [II-51, iprovalicarb, reference compound], the Observed efficacy in assay [1] (4 ppm) came out at 0; in assay [2] (4 ppm) it was 2; in assay [2] (16 ppm), 3; in assay [2] (63 ppm), 6; in assay [6] (16 ppm) it was 19; in assay [4] (4 ppm) it was 1. The figures for the Observed efficacy in assay [4] (16 ppm) and in assay [4] (63 ppm) were 2 and 1, respectively.

As to `N#Cc1c[nH]cc1-c1cccc2c1OC(F)(F)O2` [II-34, fludioxonil, reference compound], the inhibition of growth at 0.016 ppm in assay [1] (setting [7]) worked out at 36%.

As to `Cn1cc(C(=O)Nc2ccc(F)cc2-c2ccc(Cl)c(Cl)c2)c(C(F)F)n1` [II-6, bixafen, reference compound], the Observed efficacy is 2 in assay [1] (0.016 ppm), 8 in assay [2] (0.016 ppm), 5 in assay [4] (0.001 ppm) and 38 in assay [4] (0.004 ppm).

Turning to `COC(=O)Nc1nc2ccccc2[nH]1` [II-8, carbendazim, reference compound], the inhibition of growth at 0.004 ppm in assay [2] (Botrytis cinerea, 168 h, 0.004 ppm, read-out: Observed efficacy) stood at 5%. The inhibition of growth at 0.016 ppm in assay [2] (setting [24]) stood at 3%. Also, the inhibition of growth at 16 ppm came out at 16% in assay [3] (Zymoseptoria tritici, 168 h, 16 ppm, read-out: Observed efficacy) and 10% in assay [4] (setting [11]). In addition, in assay [4] (setting [10]), the inhibition of growth at 4 ppm is 7%. The inhibition of growth at 63 ppm in assay [4] (setting [23]) came to 34%.

For the compound `N#Cc1nn(-c2c(Cl)cc(C(F)(F)F)cc2Cl)c(N)c1[S+]([O-])C(F)(F)F` (centres unmarked) [II-20c, fipronil, reference compound], the inhibition of growth at 4 ppm is 1% in assay [1] (setting [7]) and 2% in assay [4] (setting [10]). Further, in assay [1] (setting [7]), the inhibition of growth at 16 ppm came out at 8%. Also, the inhibition of growth at 1 ppm is 4% in assay [5] (setting [21]) and 6% in assay [4] (Alternaria solani, 168 h, 1 ppm, read-out: Observed efficacy).

Turning to `CC1COC(Cn2cncn2)(c2ccc(Oc3ccc(Cl)cc3)cc2Cl)O1` (centres unmarked) [Difenoconazol], the Observed efficacy in assay [1] (1 ppm) is given as 11; in assay [3] (0.016 ppm), 26; in assay [6] (0.016 ppm) it was 29; in assay [4] (0.004 ppm), 5; in assay [4] (0.016 ppm), 5.

In the case of `CC1(C)CC/C(=C\c2ccc(Cl)cc2)C1(O)Cn1cncn1` (centres unmarked) [Triticonazol], the Observed efficacy in assay [1] (1 ppm) was found to be 1; in assay [1] (4 ppm), 59.

Consider `CC(C)C(O)(Cn1cncn1)c1ccc(Oc2ccc(Cl)cc2)cc1Cl` (centres unmarked) [I-19, 2-[2-chloro-4-(4-chlorophenoxy)phenyl]-3-methyl-1-(1,2,4-triazol-1-yl)butan-2-ol], for which the inhibition of growth at 0.016 ppm was determined as 20% in assay [2] (setting [24]) and 0% in assay [4] (setting [17]). For the same compound, the inhibition of growth at […] came to 29% in assay [2] (setting [12]); 64% in assay [6] (Parastagonospora nodorum, 168 h, 0.25 ppm, read-out: Observed efficacy); 25% in assay [4] (setting [22]). Also, in assay [3] (Zymoseptoria tritici, 168 h, 0.000016 ppm, read-out: Observed efficacy), the inhibition of growth at 1.6e-05 ppm came out at 12%. In addition, the inhibition of growth at 0.001 ppm stood at 20% in assay [3] (setting [13]) and 1% in assay [4] (setting [16]). Besides, in assay [3] (setting [13]), the inhibition of growth at 6.3e-05 ppm was determined as 13%. For the same compound, in assay [4] (setting [19]), the inhibition of growth at 0.004 ppm turned out to be 0%.

The compound `O=c1c2cc(F)ccc2nc(-n2cncn2)n1-c1ccc(Cl)cc1Cl` [Fluquinconazol] showed an Observed efficacy in assay [5] (4 ppm) of 0.

In assay [4] (0.001 ppm), `Cn1cc(C(=O)Nc2ccccc2-c2cc(F)c(F)c(F)c2)c(C(F)F)n1` [II-42, fluxapyroxad, reference compound] registered an Observed efficacy of 4.

Regarding `COC(C)(Cn1cncn1)c1ccc(Oc2ccc(Cl)cc2)cc1Cl` (centres unmarked) [I-20, 1-[2-[2-chloro-4-(4-chlorophenoxy)phenyl]-2-methoxy-propyl]-1,2,4-triazole], the results for the inhibition of growth at 0.016 ppm in assay [1] (setting [7]) and in assay [6] (setting [15]) were 0% and 14%, respectively. The results for the inhibition of growth at […] in assay [2] (setting [12]), in assay [2] (setting [18]) and in assay [4] (setting [22]) were 16%, 16% and 30%, respectively. Also, the inhibition of growth at 1 ppm in assay [2] (setting [20]) is 58%. Also, the inhibition of growth at 0.001 ppm in assay [3] (setting [13]) and in assay [6] (setting [14]) was 5% throughout. Besides, the inhibition of growth at 0.004 ppm was 10% in assay [6] (setting [14]) and 0% in assay [4] (setting [19]).
